The results in this text go back to ChEMBL document CHEMBL2203237, “Synthesis of C3-arylated-3-deazauridine derivatives with potent anti-HSV-1 activities” (Bioorg Med Chem Lett, 2012).

The subject of data set [1] is Human alphaherpesvirus 1. The data set can be described thus: Antiviral activity against Herpes simplex virus type 1 infected in Vero cells at 0.01 ID50/cells assessed as protection against virus-induced cytopathic effect after 3 days by neutral red dye method. Format: functional, organism-based. The note with it: Human alphaherpesvirus 1, Vero, 72 h. (In general: Cytopathic effects are the visible damage that an infection or toxin causes in cultured cells.)

The nature of data set [2]: Cytotoxicity against african green monkey Vero cells after 3 days by neutral red dye method. Type of data set: cell-based. To be noted: chlorocebus sabaeus.
For data set [3], the system named is Human alphaherpesvirus 1. Kind of data set: Ratio of acyclovir EC50 to compound EC50 for Herpes simplex virus type 1. Format: functional.
The subject of data set [4] is Human alphaherpesvirus 1. The data set can be described thus: Antiviral activity against Herpes simplex virus type 1 infected in Vero cells at 0.001 ID50/cells assessed as protection against virus-induced cytopathic effect at 200 ug/ml after 3 days by neutral red dye method relative to control. Format: functional.
Data set [5] deals with Human alphaherpesvirus 1. The data set can be described thus: Antiviral activity against Herpes simplex virus type 1 infected in Vero cells at 0.001 ID50/cells assessed as protection against virus-induced cytopathic effect after 3 days by neutral red dye method. Format: functional, organism-based. The note with it: Human alphaherpesvirus 1, Vero, 72 h.
Data set [6] deals with Human alphaherpesvirus 1. The data set can be described thus: Antiviral activity against Herpes simplex virus type 1 infected in Vero cells at 0.001 ID50/cells assessed as destruction of cell layer after 3 days by neutral red dye method. Format: functional, organism-based.
Data set [7] relates to Human alphaherpesvirus 1. The data set can be described thus: Antiviral activity against Herpes simplex virus type 1 infected in Vero cells at 0.001 ID50/cells assessed as change in cell morphology after 3 days by neutral red dye method. Format: functional, organism-based.

Active and inactive are the calls of the source. The rule behind the calls is not given here.

By EC50 is commonly meant the concentration at which the effect is half-maximal. As usually defined, the CC50 is the concentration at which the toxic effect on the cells reaches its halfway point. As for `CC(=O)OC[C@H]1O[C@@H](n2cc(-c3ccccc3)c(O)cc2=O)[C@H](OC(C)=O)[C@@H]1OC(C)=O`, the EC50 in data set [1] is over 100 µM. The compound also came in with a cytotoxic concentration (CC50) at 72 h in data set [2] of over 200 µM.

On to `COc1c(C)cc(-c2c(O)ccn([C@@H]3O[C@H](COC(C)=O)[C@@H](OC(C)=O)[C@H]3OC(C)=O)c2=O)cc1C`, for which the concentration for a half-maximal effect (EC50) in data set [1] was over 100 µM. The CC50 at 72 h in data set [2] is over 200 µM.

As for `CC(=O)OC[C@H]1O[C@@H](n2c(=O)cc(O)c3ccccc32)[C@H](OC(C)=O)[C@@H]1OC(C)=O`, the 50% effective concentration (EC50) in data set [1] was over 100 µM. The CC50 at 72 h in data set [2] was over 200 µM.

For the compound `O=c1c(-c2ccc(-c3ccccc3)cc2)c(O)ccn1[C@@H]1O[C@H](CO)[C@@H](O)[C@H]1O`, the half-maximal effective concentration (EC50) in data set [1] was over 100 µM. Further, in data set [2], the CC50 at 72 h was over 200 µM.

In the case of `O=c1cc(O)c2ccccc2n1[C@@H]1O[C@H](CO)[C@@H](O)[C@H]1O`, the EC50 in data set [1] was over 100 µM. The same compound showed a CC50 at 72 h in data set [2] of over 200 µM.

On to `COc1ccc(-c2c(O)ccn([C@@H]3O[C@H](CO)[C@@H](O)[C@H]3O)c2=O)cc1`, for which the figures for the EC50 in data set [1] and in data set [5] were over 100 µM and 20 µM, respectively. Besides, in data set [3], the ratio came to 3.8. The compound also came in with a CC50 at 72 h in data set [2] of over 400 µM. Further, the Activity in data set [4] is reported as 82%. Besides, the outcome in data set [6] and in data set [7] was Active.

For `COc1ccc(-c2c(O)ccn([C@@H]3O[C@H](CO)[C@@H](O)[C@H]3O)c2=O)cc1OC`, in data set [2], the CC50 at 72 h is over 400 µM. Besides, the EC50 in data set [5] was over 100 µM. Further, the result in data set [6] and in data set [7] was Active.

Consider `CC(=O)OC[C@H]1O[C@@H](n2ccc(O)c(-c3ccc(S(C)(=O)=O)cc3)c2=O)[C@H](OC(C)=O)[C@@H]1OC(C)=O`, for which the half-maximal effective concentration (EC50) in data set [1] is over 100 µM. For the same compound, the CC50 at 72 h in data set [2] was over 200 µM.

In the case of `CC(=O)OC[C@H]1O[C@@H](n2ccc(O)c(CCc3ccccc3)c2=O)[C@H](OC(C)=O)[C@@H]1OC(C)=O`, the cytotoxic concentration (CC50) at 72 h in data set [2] is over 400 µM. Further, the EC50 in data set [5] was over 100 µM. The result in data set [6] and in data set [7] was Active.

As for `COc1ccc(-c2cn([C@@H]3O[C@H](CO)[C@@H](O)[C@H]3O)c(=O)cc2O)cc1`, the EC50 in data set [1] is over 100 µM. The half-maximal cytotoxic concentration (CC50) at 72 h in data set [2] is over 200 µM.

Turning to `O=c1c(CCc2ccccc2)c(O)ccn1[C@@H]1O[C@H](CO)[C@@H](O)[C@H]1O`, the CC50 at 72 h in data set [2] was over 400 µM. For the same compound, in data set [5], the EC50 was over 100 µM. Also, the outcome in data set [6] and in data set [7] was Active.

On to `CC(=O)OC[C@H]1O[C@@H](n2ccc(O)c(-c3ccc(C)cc3)c2=O)[C@H](OC(C)=O)[C@@H]1OC(C)=O`, for which the CC50 at 72 h in data set [2] was over 400 µM. For the same compound, in data set [5], the EC50 is over 100 µM. For the same compound, the result in data set [6] and in data set [7] was Active.

`Cc1ccc(-c2c(O)ccn([C@@H]3O[C@H](CO)[C@@H](O)[C@H]3O)c2=O)cc1` returned a cytotoxic concentration (CC50) at 72 h in data set [2] of over 400 µM. Besides, the half-maximal effective concentration (EC50) in data set [5] is over 100 µM. In addition, the result in data set [6] and in data set [7] was Active.

For `O=c1c(-c2ccc(C3CCCCC3)cc2)c(O)ccn1[C@@H]1O[C@H](CO)[C@@H](O)[C@H]1O`, the EC50 in data set [1] was over 100 µM. Besides, in data set [2], the 50% cytotoxic concentration (CC50) at 72 h is over 200 µM.

Regarding `COc1cc(-c2c(O)ccn([C@@H]3O[C@H](CO)[C@@H](O)[C@H]3O)c2=O)cc(OC)c1OC`, the EC50 in data set [1] is over 100 µM. In data set [2], the CC50 at 72 h is over 200 µM.

On to `CC(=O)OC[C@H]1O[C@@H](n2ccc(O)c(-c3ccccc3)c2=O)[C@H](OC(C)=O)[C@@H]1OC(C)=O`, for which, in data set [2], the CC50 at 72 h is over 400 µM. Besides, the concentration giving a half-maximal response (EC50) in data set [5] was over 100 µM. The result in data set [6] and in data set [7] was Active.

As to `O=c1c(-c2ccc3c(c2)OCO3)c(O)ccn1[C@@H]1O[C@H](CO)[C@@H](O)[C@H]1O`, the CC50 at 72 h in data set [2] is over 400 µM. For the same compound, the EC50 in data set [5] is over 100 µM. The outcome in data set [6] and in data set [7] was Active.

Consider `CC(=O)OC[C@H]1O[C@@H](n2ccc(O)c(-c3ccc(C(C)(C)C)cc3)c2=O)[C@H](OC(C)=O)[C@@H]1OC(C)=O`, for which the concentration giving a half-maximal response (EC50) in data set [1] was over 100 µM. The same compound had a 50% cytotoxic concentration (CC50) at 72 h in data set [2] of over 200 µM.

In data set [2], `O=c1c(-c2ccccc2)c(O)ccn1[C@@H]1O[C@H](CO)[C@@H](O)[C@H]1O` had a CC50 at 72 h of over 400 µM. The EC50 in data set [5] was over 100 µM. In addition, the result in data set [6] and in data set [7] was Active.

As for `COc1ccc(-c2c(O)ccn([C@@H]3O[C@H](COC(C)=O)[C@@H](OC(C)=O)[C@H]3OC(C)=O)c2=O)cc1`, the EC50 was over 100 µM in data set [1] and 10.5 µM in data set [5]. Besides, the ratio in data set [3] was determined as 7.2. This compound also showed a 50% cytotoxic concentration (CC50) at 72 h in data set [2] of over 200 µM. In addition, the Activity in data set [4] was determined as 85%. Also, the result in data set [6] and in data set [7] was Active.

As for `O=c1cc(O)c(-c2ccccc2)cn1[C@@H]1O[C@H](CO)[C@@H](O)[C@H]1O`, the EC50 in data set [1] was over 100 µM. Also, the CC50 at 72 h in data set [2] was over 200 µM.

Regarding `CC(=O)OC[C@H]1O[C@@H](n2ccc(O)c(-c3ccc4c(c3)OCO4)c2=O)[C@H](OC(C)=O)[C@@H]1OC(C)=O`, in data set [2], the CC50 at 72 h was over 400 µM. Also, the EC50 in data set [5] was over 100 µM. Besides, the outcome in data set [6] and in data set [7] was Active.

For `CCOc1ccc(-c2c(O)ccn([C@@H]3O[C@H](COC(C)=O)[C@@H](OC(C)=O)[C@H]3OC(C)=O)c2=O)cc1`, the EC50 in data set [1] was over 100 µM. Moreover, in data set [2], the CC50 at 72 h is over 200 µM.

Take `COc1cc(-c2c(O)ccn([C@@H]3O[C@H](COC(C)=O)[C@@H](OC(C)=O)[C@H]3OC(C)=O)c2=O)cc(OC)c1OC`: in data set [1], the EC50 was over 100 µM. Also, the half-maximal cytotoxic concentration (CC50) at 72 h in data set [2] was over 200 µM.

Take `CCOc1ccc(-c2c(O)c(-c3ccccc3)cn([C@@H]3O[C@H](COC(C)=O)[C@@H](OC(C)=O)[C@H]3OC(C)=O)c2=O)cc1`: the EC50 in data set [1] is over 100 µM. The same compound yielded a CC50 at 72 h in data set [2] of over 200 µM.

In the case of `CC(=O)OC[C@H]1O[C@@H](n2ccc(O)c(-c3ccc(-c4ccccc4)cc3)c2=O)[C@H](OC(C)=O)[C@@H]1OC(C)=O`, the EC50 in data set [1] was determined as 33 µM. Also, the ratio in data set [3] turned out to be 67. In data set [2], this compound returned a CC50 at 72 h of over 200 µM.

As to `CC(=O)OC[C@H]1O[C@@H](n2ccc(O)c(-c3ccc(OC(F)(F)F)cc3)c2=O)[C@H](OC(C)=O)[C@@H]1OC(C)=O`, the half-maximal effective concentration (EC50) in data set [1] is over 100 µM. Also, the CC50 at 72 h in data set [2] was over 200 µM.

Consider `CC(=O)OC[C@H]1O[C@@H](n2ccc(O)c(-c3ccc(C4CCCCC4)cc3)c2=O)[C@H](OC(C)=O)[C@@H]1OC(C)=O`, for which the concentration for a half-maximal effect (EC50) in data set [1] was 49 µM. Besides, in data set [3], the ratio turned out to be 45. Moreover, in data set [2], the CC50 at 72 h is over 200 µM.

With `COc1c(C)cc(-c2c(O)ccn([C@@H]3O[C@H](CO)[C@@H](O)[C@H]3O)c2=O)cc1C`, the EC50 in data set [1] is over 100 µM. In data set [2], the 50% cytotoxic concentration (CC50) at 72 h was over 200 µM.

Take `CCOc1ccc(-c2c(O)ccn([C@@H]3O[C@H](CO)[C@@H](O)[C@H]3O)c2=O)cc1`: the EC50 in data set [1] is over 100 µM. In data set [2], this compound displayed a CC50 at 72 h of over 200 µM.

For the compound `CC(C)(C)c1ccc(-c2c(O)ccn([C@@H]3O[C@H](CO)[C@@H](O)[C@H]3O)c2=O)cc1`, the EC50 in data set [1] is over 100 µM. The compound further yielded a CC50 at 72 h in data set [2] of over 200 µM.

With `COc1ccc(-c2c(O)ccn([C@@H]3O[C@H](COC(C)=O)[C@@H](OC(C)=O)[C@H]3OC(C)=O)c2=O)cc1OC`, the concentration giving a half-maximal response (EC50) in data set [1] was over 100 µM; in data set [5] it was 36.6 µM. Besides, in data set [3], the ratio was determined as 2.1. In data set [2], this compound came in with a CC50 at 72 h of over 200 µM. Moreover, in data set [4], the Activity was 75%. The outcome in data set [6] and in data set [7] was Active.

Consider `CCOc1ccc(-c2c(O)c(-c3ccccc3)cn([C@@H]3O[C@H](CO)[C@@H](O)[C@H]3O)c2=O)cc1`, for which the concentration giving a half-maximal response (EC50) in data set [1] was over 100 µM. In addition, the half-maximal cytotoxic concentration (CC50) at 72 h in data set [2] is over 200 µM.

On to `COc1ccc(-c2cn([C@@H]3O[C@H](COC(C)=O)[C@@H](OC(C)=O)[C@H]3OC(C)=O)c(=O)cc2O)cc1`, for which the EC50 in data set [1] is over 100 µM. Further, in data set [2], the cytotoxic concentration (CC50) at 72 h was over 200 µM.

On to `Nc1nc2c(ncn2COCCO)c(=O)[nH]1` [ACYCLOVIR], for which the half-maximal effective concentration (EC50) was determined as 22 µM in data set [1] and 0.76 µM in data set [5]. Also, in data set [2], the CC50 at 72 h was over 200 µM.
